Measurements as given in ChEMBL document CHEMBL6096707, “UBE2N: Hope on the Cancer Front, How to Inhibit This Promising Target Prospect?” (J Med Chem, 2025).

What was measured:
[1] = biological target: T1, Ubiquitin-conjugating enzyme E2 N (Homo sapiens, UniProt P61088); assay: Inhibition of UBE2N (unknown origin)
T1 sequence (P61088 whole entry): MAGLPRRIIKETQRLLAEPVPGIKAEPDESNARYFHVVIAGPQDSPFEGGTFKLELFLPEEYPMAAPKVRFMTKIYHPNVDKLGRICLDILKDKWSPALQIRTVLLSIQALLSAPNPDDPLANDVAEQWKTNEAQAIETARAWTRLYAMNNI

[2] = biological target: T1, Ubiquitin-conjugating enzyme E2 N; assay: Inhibition of UBE2N (unknown origin) by TR-FRET analysis
[3] = Inhibition of HDM2/p53 (unknown origin) protein-protein interaction; design: species or system Homo sapiens

SMILES: COC(=O)c1cc2c(cn1)[nH]c1ccc(O)cc12
- IC50 [1]: 16000 nM

SMILES: O=C(NCC1CCN(Cc2cccc(Cl)c2)CC1)[C@@H]1CCCN(c2ncnc3c2nc2n3CCCC2)C1
- IC50 [2]: 781 nM

SMILES: C=C1CC(C)(C)[C@@H](/C=C\[C@@H](C)[C@H]2CC[C@H]3[C@@H]4C[C@H](OS(=O)(=O)O)[C@H]5C[C@@H](O)CC[C@]5(C)[C@H]4CC[C@]23C)[C@H]1CC(O)[C@@H](C)[C@H]1CC[C@H]2[C@@H]3C[C@H](OS(=O)(=O)O)[C@H]4C[C@H](OS(=O)(=O)O)[C@@H](OS(=O)(=O)O)C[C@]4(C)[C@H]3CC[C@]12C (stereo partly specified)
- IC50 [1]: 130 nM

SMILES: C[C@@H](N)[C@@H](O)C/C=C\C/C=C\C/C=C\C/C=C\C/C=C\C/C=C\CCCCCC[C@H](O)[C@@H](C)N [LEUCETTAMOL A]
- IC50 [3]: 150 µM

SMILES: CC1=CC(C)(C)[C@@H](/C=C\[C@@H](C)[C@H]2CC[C@H]3[C@@H]4C[C@H](OS(=O)(=O)O)[C@H]5C[C@H](O)[C@@H](OS(=O)(=O)O)C[C@]5(C)[C@H]4CC[C@]23C)[C@H]1CC[C@@H](C)[C@H]1CC[C@H]2[C@@H]3C[C@H](OS(=O)(=O)O)[C@H]4C[C@H](OS(=O)(=O)O)[C@@H](OS(=O)(=O)O)C[C@]4(C)[C@H]3CC[C@]12C [MANADOSTEROL A]
- IC50 [3]: 160 µM
- IC50 [1]: 90 nM
